Measured values published in PMC12073635, “Synthesis of Tricyclic and Tetracyclic Lactone Derivatives of Thieno[2,3-b]pyrazine or Thieno[2,3-b]quinoline: Preliminary Antitumor and Antiparasitic Activity Evaluation” (Molecules, 2025).

Assays:
[1] = tested on: L. infantum MHOM/MA/67/ITMAP-263 promastigotes; experiment: Resazurin-based assay against L. infantum promastigotes; assay type: cell-based, Leishmania infantum; details: Leishmania infantum, 72 h, dose-response
Description: The antiparasitic activity of compounds 2c–g, 3a, 5a and 7 was evaluated at a single concentration of 20 μM, against Trypanosoma brucei (T. brucei) and Leishmania infantum (L. infantum) promastigotes. The results are shown in Table 9 together with the cytotoxicity data (CC50) in THP-1–derived macrophages cells.
L. infantum MHOM/MA/67/ITMAP-263 promastigotes forms were grown at 27 °C, in complete RPMI-1640 medium supplemented with 10% heat-inactivated Fetal Bovine Serum (FBS), 2 mM L-glutamine, 100 UI/mL penicillin/streptomycin, 20 mM HEPES. Parasites maintenance was performed in T25 non-ventilated flasks by subpassage at a concentration of 1 × 10^6/mL every 5 days on T25 non-ventilated flasks.
The compounds’ efficacy against L. infantum promastigotes was evaluated using a resazurin-based assay. Parasites were added to 100 µL of serial dilutions of compounds in supplemented complete medium at a cell density of 5 × 10^5/mL. As a quality control, a dose–response curve to the antileishmanial drug miltefosine was included in all the assays. The final volume of the assay was 200 µL/well. Each condition was carried out in duplicate. Following 72 h of incubation at the specific conditions for L. infantum, 20 µL of a 0.5 mM resazurin solution was added, and the plates were incubated for a further 4 h under the same conditions. The methodology to obtain the results was the same described in Section 3.2.2. for T. brucei.

[2] = SRB assay, toxicity in non-tumor PLP2 cells; assay type: cell-based, pig; details: PLP2 primary pig liver cells (non-tumor); non-tumor primary pig liver cells, SRB assay, 72 h, mean ± standard deviation
Description: (§1) The antitumor potential of the Sonogashira coupling products 2, tricyclic lactones 3 and 5, and tetracyclic lactones 7 was evaluated using the sulforhodamine B (SRB) assay against five human tumor cell lines: colorectal adenocarcinoma (CaCo-2), breast adenocarcinoma (MCF-7), gastric adenocarcinoma (AGS), cervical carcinoma (HeLa), and non-small cell lung cancer (NCI-H460). A primary pig liver cell culture (PLP2) was used to assess the toxicity of compounds.
(§2) The human tumor cell lines used were CaCo-2 (colorectal adenocarcinoma), MCF-7 (breast adenocarcinoma), AGS (gastric adenocarcinoma), HeLa (cervical carcinoma), NCI-H460 (lung carcinoma). Non-tumor cell lines were also tested: PLP2 (primary pig liver culture). All the cell lines were maintained in RPMI-1640 medium supplemented with 10% fetal bovine serum, glutamine (2 mM), penicillin (100 U/mL), and streptomycin ([…]), with the exception of PLP2, which was maintained in DMEM medium supplemented with fetal bovine serum (10%), glutamine and antibiotics. The culture flasks were incubated at 37 °C and with 5% CO2, under a humid atmosphere. The cells were used only when they had 70 to 80% confluence. A known mass of each compound was dissolved in DMSO/H2O (1:1, 1 mL), in order to obtain the stock solutions with a concentration of 1 mM. […] Each compound concentration (10 μL) was incubated with the cell suspension (190 μL) of the cell lines tested in 96-well microplates for 72 h. The microplates were incubated at 37 °C and with 5% CO2 in a humid atmosphere after checking the adherence of the cells. All cell lines were tested at a concentration of 10,000 cells/well. After the incubation period, the cells were treated: TCA (10% w/v; 100 μL) was previously cooled, and plates were incubated for 1 h at 4 °C, washed with water, and, after drying, a SRB solution (0.057%, m/v; 100 μL) was added and left to stand at room temperature for 30 min. To remove non-adhered SRB, plates were washed three times with a solution of acetic acid (1% v/v) and placed to dry. Finally, an adhered SRB was solubilized with Tris (10 mM, 200 μL) and the absorbance at a wavelength of 540 nm was read in the Biotek ELX800 microplate reader. The results obtained by the SRB assay were expressed regarding the concentration compounds that can inhibit cell growth by 50%—GI50. Doxorubicin was used as a positive control.

[3] = tested on: PLP2 (primary pig liver cell culture); experiment: SRB assay, toxicity in non-tumor PLP2 cells; assay type: cell-based; details: at the GI50 concentrations
Description: as §1, §2

[4] = MTT cytotoxicity in THP-1-derived macrophages; assay type: cell-based, human; details: human, THP-1-derived macrophages (PMA-differentiated); MTT, 72 h, tested 100 to 12.5 μM; read-out: CC50 Interval in THP-1-Derived Macrophages
Description: (§3) Human leukemia cell line, THP-1 (ATCC® TIB-202™, Manassas, VA, USA) was cultured in RPMI-1640 medium supplemented with 10% heat-inactivated Fetal Bovine Serum (FBS), 2 mM L-glutamine, 100 UI/mL penicillin/streptomycin, 20 mM HEPES. The cell line was maintained in a humidified incubator at 37 °C and 5% CO2 by subculture every three days in 20 mL of media at a concentration of 1 × 10^5/mL in a T75 flask. All cell culture reagents were purchased from Lonza-Bioscience (Morrisville, NC, USA).
(§4) The cytotoxicity effect of compounds on THP-1-derived macrophages was assessed by the colorimetric MTT assay (3-(4,5-dimethylthiazol-2-yl)-2,5-diphenyl tetrazolium bromide). Briefly, THP-1 cells were suspended in RPMI complete medium at a density of 1 × 10^6 cells/mL and 100 μL/well were seeded in a 96-well plate and were differentiated into macrophages by addition of 40 ng/mL of phorbol-myristate 13-acetate (PMA, Sigma, Saint Louis, MI, USA) for 24 h followed by replacement with fresh medium for more 24 h. Subsequently, cells were incubated with 100 μL of compounds ranging from 100 to 12.5 μM after dilution in the RPMI complete medium. Each condition was carried out in quadruplicate. After 72 h of incubation at 37 °C 5% CO2, the medium was removed and 200 μL of 0.5 mg/mL MTT solution diluted in RPMI was added. Plates were incubated for an additional 4 h. Then 160 μL of media was removed and the same volume of 2-propanol was added. Absorbance was read at 570 nm using a Synergy 2 Multi-Mode Reader (Biotek, Winooski, VT, USA). Cytotoxicity was evaluated by the determination of the CC50 value (drug concentration that reduced the percentage of viable cells in 50%) and calculated by non-linear regression analysis using GraphPad Prism version 8.1.1 for Windows (GraphPad Software, San Diego, CA, USA). The results represent the average of at least three independent experiments. For each compound, the Selectivity Index (SI) was calculated as the ratio between cytotoxicity in THP-1 (CC50, 72 h) and activity against parasites (IC50, 72 h).

[5] = tested on: THP-1-derived macrophages; experiment: MTT cytotoxicity in THP-1-derived macrophages; assay type: cell-based, human
Description: as §3, §4

Compound | IC50 [1] | GI50 at 72 h [2] | toxicity in PLP2 cells (in words) [3] | CC50 at 72 h [4] | cytotoxicity in THP-1-derived macrophages (in words) [5]
COC(=O)c1sc2nccnc2c1C#Cc1ccccn1 [Compound 2f, Methyl 7-(pyridin-2-ylethynyl)thieno[2,3-b]pyrazine-6-carboxylate] | 16 µM | 57.9 ± 4.31 µM | without significant toxicity | 25 to 100 µM | some level of toxicity
O=c1oc(-c2ccccn2)cc2c1sc1nccnc12 [Compound 3f, 8-(Pyridin-2-yl)-6H-pyrano[4′,3′:4,5]thieno[2,3-b]pyrazin-6-one] |  | > 125 µM | low toxicity |  | some degree of cytotoxicity
